Assay results as given in PubChem BioAssay (NCI).
Where “and” joins values, the source holds several entries; their conditions need not be identical. Equal entries are not always repeated.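 Results reflect a 48-hour exposure of cells in 96-well plates to compound at five concentrations. At the GI50, growth is halved. TGI marks complete inhibition of growth.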

Legend:
Experiment in all cases: NCI anticancer screen, dose series, 48 h
[1] = tested on: NCI-H522 lung
[2] = tested on: BT-549 breast
[3] = tested on: CAKI-1 renal
[4] = tested on: SR leukemia
[5] = tested on: RPMI-8226 leukemia
[6] = tested on: 786-0 renal
[7] = tested on: SN12C renal
[8] = tested on: KM12 colon
[9] = tested on: OVCAR-3 ovarian
[10] = tested on: NCI-H226 lung

| SMILES | GI50 [1] | TGI [1] | GI50 [2] | TGI [2] | GI50 [3] | TGI [3] | GI50 [4] | TGI [4] | GI50 [5] | TGI [5] | GI50 [6] | TGI [6] | GI50 [7] | TGI [7] | GI50 [8] | TGI [8] | GI50 [9] | TGI [9] | GI50 [10] | TGI [10] |
| --- | --- | --- | --- | --- | --- | --- | --- | --- | --- | --- | --- | --- | --- | --- | --- | --- | --- | --- | --- | --- |
| Cn1ccnc1C(=O)/C=C/c1ccc(C(=O)Nc2c(F)c(F)c(F)c(F)c2F)cc1 | 1.8 µM | 3.96 µM | 1.43 µM | 2.75 µM | 1.53 µM | 3.11 µM | 0.339 µM | 2.26 µM | 0.505 µM | 2.54 µM | 1.83 µM | 3.62 µM | 1.77 µM | 3.69 µM | 1.14 µM | 2.71 µM | 1.4 µM | 2.74 µM | 2.7 µM | 8.49 µM |
| Nc1nc(=S)c2[nH]cnc2[nH]1 | 0.418 µM and 2.07 µM and 1 µM | 3.04 µM and 6.04 µM and 7.26 µM | 0.716 µM and 1.4 µM and 1.85 µM | – | 0.264 µM and 0.345 µM and 0.888 µM | – | 0.0786 µM and 0.588 µM | > 24.7 µM and 15.7 µM | 0.255 µM and 1.3 µM and 0.488 µM | 2.77 µM and 22.3 µM and 3 µM | 0.335 µM and 1.45 µM and 1.01 µM | – | – | > 100 µM and 171 µM and > 250 µM | 0.816 µM and 3.25 µM and 3.14 µM | – | 0.446 µM and 1.44 µM and 1.1 µM | 6.32 µM and 7.68 µM and 9.64 µM | 0.72 µM and 6.95 µM | > 59.5 µM and 106 µM and 102 µM |
| COc1ccc(/C=C/C(C)=N/OCC(=O)Nc2ccc(Cl)cc2)cc1 | 1.81 µM | 8.01 µM | 2.71 µM | 14.4 µM | 2.29 µM | 27 µM | 2.24 µM | 10.6 µM | 1.89 µM | 6.21 µM | 4.2 µM | 26.6 µM | 2.8 µM | > 47.7 µM | 2.24 µM | 16.5 µM | 3.03 µM | 15 µM | 3.38 µM | 26.7 µM |
| COc1cc(/C=C2\C(=O)N(C)c3ccccc32)cc(OC)c1OC | 11.2 µM | 37.8 µM | 33.4 µM | > 100 µM | 17.1 µM | 80.9 µM | 6.26 µM | 39.7 µM | 9.67 µM | 49.1 µM | 25.3 µM | 97.4 µM | 17 µM | 69.5 µM | 11.2 µM | 30.1 µM | 21.3 µM | 76.9 µM | 19.1 µM | 52.4 µM |
| COc1cc(OC)cc(-c2ccc(-c3ccc(C(=N)N)cn3)s2)c1 | 2.27 µM | 5.59 µM | 10.5 µM | 26.4 µM | 1.73 µM | 3.2 µM | 3.51 µM | 10.9 µM | 2.46 µM | 5.51 µM | 1.98 µM | 3.72 µM | 1.78 µM | 3.8 µM | 1.84 µM | 3.48 µM | 1.77 µM | 3.2 µM | 10.1 µM | 27.8 µM |
| C[C@]12CCC3=NCCN3C1=CC[C@@H]1[C@@H]2CC[C@@]2(C)[C@H]1CC[C@]2(C)O | – | > 100 µM | – | > 100 µM | – | > 100 µM | – | > 100 µM | – | 70.8 µM | – | 32.4 µM | – | > 100 µM | – | > 100 µM | – | > 100 µM | – | 96.3 µM |
| C=C(Cl)[C@@](Cl)(CBr)CC[C@@H](Br)C(C)(C)Cl | – | 34.5 µM and 43.5 µM | – | 22.3 µM | 1.22 µM | 4.9 µM and 1.06 µM | 23.1 µM | > 100 µM and 79.4 µM | 0.0688 µM | 1.48 µM and 0.473 µM | 0.0733 µM | 0.286 µM and 0.247 µM | – | 17.3 µM | – | 2.36 µM and 0.689 µM | – | 2.87 µM and 1.35 µM | – | 31 µM and 50.8 µM |
| Cc1ccnc(Nc2ccc([N+](=O)[O-])c(NCCN3CCOCC3)n2)c1 | 0.00209 µM | 0.00686 µM | 0.0208 µM and 0.0191 µM | 23.4 µM | 0.0052 µM | > 100 µM | 0.00376 µM | 63.5 µM | 0.0212 µM and 0.0269 µM | 24.5 µM | 0.00821 µM and 0.0149 µM | 23.7 µM | 0.0425 µM and 0.048 µM | > 100 µM | 0.00464 µM | – | 0.00266 µM | 0.0078 µM | 0.0594 µM | – |
| COc1ccc(/C(C)=C(\c2ccc(Cl)cc2)c2ccc(OCCN3CCCCCC3)cc2)cc1F | 3.92 µM | 9.71 µM | 2.79 µM | 6.74 µM | 3.37 µM | 7.7 µM | 2.26 µM | 12.3 µM | 3.63 µM | 9.92 µM | 2.56 µM | 5.11 µM | 2.96 µM | 8.3 µM | 1.7 µM | 7.04 µM | 2.98 µM | 5.89 µM | 5.47 µM | > 16.7 µM |
| COC(=O)[C@H](Cc1cn(C)cn1)NC(=O)[C@@H](NC(=O)Nc1cc(C(F)(F)F)cc(C(F)(F)F)c1)C(C)C | 1.71 µM | 3.66 µM | 2.51 µM | 7.9 µM | > 10 µM | > 10 µM | 3.08 µM | > 10 µM | 3.03 µM | > 10 µM | > 10 µM | > 10 µM | 1.88 µM | 3.97 µM | 1.98 µM | 4.22 µM | 1.86 µM | 3.48 µM | > 10 µM | > 10 µM |
| CCCCCCCCCCCCOC1C(C(CC(=O)N2CCN(Cc3ccc4c(c3)OCO4)CC2)NS(=O)(=O)c2cc(Cl)cc(Cl)c2)OC2OC(C)(C)OC21 (configuration not stated) | 26.9 µM | > 100 µM | 27.9 µM | > 100 µM | > 100 µM | > 100 µM | 3.85 µM | 47.4 µM | 3.79 µM | > 47.5 µM | 20.4 µM | > 86.5 µM | 15.6 µM | 43.2 µM | 18.1 µM | > 100 µM | 20.3 µM | > 100 µM | 43.5 µM | > 100 µM |
| CC1=C(CNO)C2=C(C)C3(CC3)[C@@](C)(O)C(=O)C2=C1 | 0.679 µM | 5.25 µM | 1.24 µM | 3.6 µM | 1.66 µM | 7.07 µM | 4.49 µM | > 100 µM | 21.1 µM | 72.9 µM | 2.53 µM | 6.88 µM | 2.77 µM | > 100 µM | 3.72 µM | 27.4 µM | 1.49 µM | 6.26 µM | 1.83 µM | 4.79 µM |
| COc1ccc(/C=C\c2cc(OC)c(OC)c(OC)c2)c(NS(=O)(=O)c2ccc(C(C)(C)C)cc2)c1O | 0.213 µM | 12.2 µM | 0.467 µM | 5.22 µM | 0.0674 µM | 18.7 µM | 0.0453 µM | > 100 µM | 0.508 µM | 25.6 µM | 0.49 µM | 14.6 µM | 0.618 µM | 21.4 µM | 0.58 µM | 15.2 µM | 0.225 µM | 12 µM | 0.546 µM | 13.5 µM |
